The source of these data is patent publication US4696920A, “Certain 2-substituted 1,3-propylidenediphosphonate derivatives, pharmaceutical compositions containing them and their use as antihypertensive agents” (priority 1984, dated 1987).

In test [1] the test system is mean blood pressure in rat. Kind of test: Acute intravenous hypotensive activity in anesthetized rats. To be noted: Rattus norvegicus, iv, read-out: Decrease in mean blood pressure (% pretest). In kind it is in vivo, rat (male Wistar). On the procedure:
Male Wistar rats were anesthetized with Pentobarbital (Nembutal, 60 mg/kg i.p.) and heparinized (5 mg/kg i.p.). After tracheotomy the right carotid was cannulated (catheter PE 50); blood pressure was measured with a pressure transducer (Statham P 23 db) and recorded on a polygraph (Beckman).
Animals received 0.5 and 1.5 mg/kg of the test compounds. Less than 100 μl of test compounds dissolved in 0.9% saline were injected in the jugular vein. Highly water insoluble compounds were suspended in 2% Tween-80. Injection of the vehicle alone had no detectable hypotensive effect.
Results presented are expressed as percent decrease in initial mean blood pressure (Mean±SEM).

Test [2] relates to calcium channel binding site for [^3 H]-Nitrendipine (rat brain membranes). Kind of test: [^3 H]-Nitrendipine binding to rat brain membranes. Details: species or system rat (male Wistar). To be noted: Table 1a; for Specifically bound [^3 H]-Nitrendipine % of control value: compound concentration 1.0 μM; for Bound ^3 H at 1.0 μM / Bound ^3 H at 0.1 μM: ratio of [^3 H]-Nitrendipine bound at 1.0 and 0.1 μM compound. On the procedure: (§1) Diltiazem hydrochloride was a generous gift from Goedecke A. G.
Suitable dilutions were made in 50 mM Tris-HCl buffer (pH 7.4) containing 150 mM NaCl and 1 mM CaCl2. The ethanol concentration in the final assay never exceeded 0.1%.
(§2) The purity of the radioligand and of the various agents tested was monitored by thin layer chromatography on silica gel plates.
(§3) The following procedure was adapted from Bellemann et al (Proc. Nat. Acad. Sci. 80, 2356, 1983), and Gould et al (Proc. Nat. Acad. Sci. 79, 3656, 1982).
(§4) Adult male Wistar rats weighing 250-300 g were anesthetized with carbon dioxide prior to decapitation. The brain was removed then immersed in ice-cold 0.32M sucrose and washed 2-3 times with fresh solution. Cerebral cortex was minced and homogenized (Potter-Elvehjem homogenizer) in 10 volumes of ice-cold sucrose solution. The homogenate was centrifuged (4° C.) at 1000×g for 15 minutes. The resulting supernatant was then centrifuged at 90000×g (30 minutes) and the pellet was washed twice with 20 ml ice-cold 50 mM Tris-HCl pH 7.4.
(§5) The final pellet was resuspended in 50 mM Tris-HCl pH 7.4/150 mM NaCl/1 mM CaCl2 to give a protein concentration of 4 mg/ml.
(§6) The membrane suspension was kept on ice until used. Binding assays were performed in subdued light to prevent dihydropyridine breakdown. Membrane protein (400 μg/tube) was incubated in 50 mM Tris-HCl buffer (pH 7.4)/150 mM NaCl/1 mM CaCl2 with the indicated concentrations of radioligand and test compounds or known calcium antagonists, in a total volume of 2 ml. After the indicated time intervals, the reaction was terminated by rapid filtration through Whatman GF/B glass fiber filters (2.4 cm diameter) on a Millipore filter holder. The assay tube was rinsed with 2 ml ice-cold 50 mM Tris-HCl pH (7.4) and the precipitate was further washed with 2×5 ml of the same buffer.
(§7) Filters were dried under a heat lamp and were extracted with 10 ml of liquid scintillation cocktail (Toluene/Triton X-100, 2/1 containing 4 g Omnifluor/1) prior to tritium determination at 48% counting efficiency.
(§8) Assays were performed in duplicate or triplicate.
(§9) Data were expressed as percent specific [^3 H]-Nitrendipine binding relative to the established control value.
(§10) Compound activity in the [^3 H]-Nitrendipine binding assay was evaluated by using the following criteria:
(§11) 1. [^3 H]-Nitrendipine binding at 1.0 μM compound final concentration was either below 95% or above 105% of the control value determined in absence of compound.
2. […] This ratio is indicative of a dose response relationship within the compound concentration range tested, when the value differs appreciably from 1.0.

The test system of test [3] is [^3 H]-PN-200 110 (dihydropyridine) binding site of calcium channel, rat brain membranes. The test is described as follows: [^3 H]-PN-200 110 binding to rat brain membranes. The arrangement: species or system rat (male Wistar). To be noted: for Specifically bound [^3 H]-PN-200 110 % of control value: compound concentration 1.0 μM; for Specifically bound [^3 H]-PN-200 110 % of control value / Bound ^3 H at 1.0 μM / Bound ^3 H at 0.1 μM: Table 1b; for Bound ^3 H at 1.0 μM / Bound ^3 H at 0.1 μM: ratio of [^3 H]-PN-200 110 bound at 1.0 and 0.1 μM compound. As for the experimental part:
as §1
Water insoluble compounds were dissolved in absolute ethanol to give 10 mM or 2.5 mM stock solutions. Suitable dilutions were made in 50 mM Tris-HCl buffer (pH 7.4) containing 150 mM NaCl and 1 mM CaCl2. The ethanol concentration in the final assay never exceeded 0.1%.
as §2, §3, §4, §5, §6, §7, §8, §9, §10, §11
2. The ratio obtained by dividing the amount of specifically found [^3 H]-Nitrendipine at 1.0 μM compound final concentration by the value obtained at 0.1 μM test compound, was smaller than 0.9 or greater than 1.1. This ratio is indicative of a dose response relationship within the compound concentration range tested, when the value differs appreciably from 1.0.
Note: In some experiments [^3 H]-PN200 110, a new and commercially available specific dihydropyridine was used instead of [^3 H]-Nitrendipine.

For test [4], the system named is rat trachea contraction induced by KCl depolarization. The test is described as follows: KCl-induced rat trachea contraction. Details: species or system rat (male SHR, Okamoto-Aoki). As for the experimental part:
Spontaneously hypertensive male rats (SHR) Okamoto-Aoki Strain, weighing 300-400 g were used in this study. They were killed by bleeding after Pentobarbital anesthesia (Nembutal, Abbott Co, 40 mg/kg). Their entire trachea was quickly removed and dissected free of fat and connective tissue in Krebs-Ringer solution. A strip (4 mm×40 mm), obtained by spirally cutting the trachea, was immediately suspended in a 50 ml Krebs-Ringer solution and continuously bubbled with a O2 /CO2 (95/5) mixture. Bath temperature was maintained at 37±1° C. The composition (mM) of the Krebs-Ringer solution modified by Nghiem, was as follows: NaCl, (118.0); KCl, (4.7); CaCl2, (2.5); MgCl2, (1.18); NaHCO3, (12.5); KH2 P04, (1.18); glucose, (5.5) in bidistilled water (pH 7.4). Each strip was equilibrated under initial tension (1.5-2 g) for 1-2 hours and the bath solution changed every 30 min. A contractile or relaxant response was isometrically measured with a force-displacement transducer (Ugo-Basile) and recorded on a polygraph (Beckman).
After equilibration, KCl was added to the bath at 65 mM final concentration. This concentration produced maximum trachea contraction. Under these conditions, a plateau phase showing a tonic sustained contraction was reached within 30 minutes. Drugs were added 30 minutes after the plateau phase has been reached (final concentration=1.0 μM). […] Recordings of the residual trachea contraction were made 40 minutes after drug addition to the bathing fluid. The initial KCl induced contraction was taken as the maximum KCl response (100%). Results were expressed as % of maximal contraction. Nifedipine, Prenylamine, Flunarizine and Diltiazem were used as reference standards to validate this assay.
All 1,3-diphosphonates and drugs were dissolved in saline (0.9% NaCl) except when water insoluble, then the compounds were dissolved in 2% ethanol. The final concentration of ethanol used has been shown not to interfere with the assay.
Results are expressed as mean values±SEM, the Student's t-test was used for statistical analysis.

As to `C[C@H](CS)C(=O)N1CCC[C@H]1C(=O)O` [Captopril, reference compound], the inhibition in vivo at 1 mg/kg in test [1] was found to be 0%.

Turning to `CCOP(=O)(CC(CCc1ccccc1)CP(=O)(OCC)OCC)OCC` [Compound 26], in test [1], the inhibition in vivo at 0.5 mg/kg was determined as 18.1 ± 3% and the inhibition in vivo at 1.5 mg/kg was found to be 41.6 ± 1.3%. Also, in test [2], the “Specifically bound [^3 H]-Nitrendipine % of control value” is 89 % of control value and the “Bound ^3 H at 1.0 μM / Bound ^3 H at 0.1 μM” value was 1.018.

In the case of `CCOP(=O)(CC(CCOc1ccccc1)CP(=O)(OCC)OCC)OCC` [Compound 33], in test [1], the inhibition in vivo at 0.5 mg/kg was determined as 13.2% and the inhibition in vivo at 1.5 mg/kg came to 16 ± 0.6%.

As to `CCCOP(=O)(CC(CCOc1ccccc1)CP(=O)(OCCC)OCCC)OCCC` [Compound 52], in test [3], the “Specifically bound [^3 H]-PN-200 110 % of control value” (shortened to “Specifically bound [^3 H]-PN-200 110 %”) is 9 % of control value and the “Bound ^3 H at 1.0 μM / Bound ^3 H at 0.1 μM” value came out at 0.227.

For the molecule `CCCCOP(=O)(CC(CCOc1cc(C)ccc1C)CP(=O)(OCCCC)OCCCC)OCCCC` [Compound 77], in test [3], the “Specifically bound [^3 H]-PN-200 110 %” value is recorded as 19 % of control value and the “Bound ^3 H at 1.0 μM / Bound ^3 H at 0.1 μM” value worked out at 0.337.

Turning to `CCCCOP(=O)(CC(CCCc1ccc([N+](=O)[O-])cc1[N+](=O)[O-])CP(=O)(OCCCC)OCCCC)OCCCC` [Compound 98], in test [3], the “Specifically bound [^3 H]-PN-200 110 %” value is on record as 19 % of control value and the “Bound ^3 H at 1.0 μM / Bound ^3 H at 0.1 μM” value stood at 0.780.

In the case of `CCCCOP(=O)(CC(Cc1cc2c(cc1Cl)OCO2)CP(=O)(OCCCC)OCCCC)OCCCC` [Compound 99], in test [3], the “Specifically bound [^3 H]-PN-200 110 %” value is listed as 56 % of control value and the “Bound ^3 H at 1.0 μM / Bound ^3 H at 0.1 μM” value is listed as 0.627.

`CCCCOP(=O)(CC(CCOc1ccc(-c2ccccc2)cc1)CP(=O)(OCCCC)OCCCC)OCCCC` [Compound 100]: in test [3], the “Specifically bound [^3 H]-PN-200 110 %” value is 38 % of control value and the “Bound ^3 H at 1.0 μM / Bound ^3 H at 0.1 μM” value worked out at 0.504.

Turning to `CCCCOP(=O)(CC(Cc1cnc(C)c2c1COC(C)(C)O2)CP(=O)(OCCCC)OCCCC)OCCCC` [Compound 101], in test [3], the “Specifically bound [^3 H]-PN-200 110 %” value is given as 47 % of control value and the “Bound ^3 H at 1.0 μM / Bound ^3 H at 0.1 μM” value is listed as 0.527.

On to `CCCCOP(=O)(CC(Cc1cnc(C)c(O)c1CO)CP(=O)(OCCCC)OCCCC)OCCCC` [Compound 102, Tetrabutyl 2-[5-(3-hydroxy-4-hydroxymethyl-2-methyl)pyridylmethyl]1,3-propylidenediphosphonate], for which, in test [3], the “Specifically bound [^3 H]-PN-200 110 %” value was 89 % of control value and the “Bound ^3 H at 1.0 μM / Bound ^3 H at 0.1 μM” value came out at 0.925.

For `CCCCOP(=O)(CC(Cc1ccc(CN2CCN(c3ccccc3)CC2)cc1)CP(=O)(OCCCC)OCCCC)OCCCC` [Compound 104], in test [3], the “Specifically bound [^3 H]-PN-200 110 %” value was 59 % of control value and the “Bound ^3 H at 1.0 μM / Bound ^3 H at 0.1 μM” value amounted to 0.687.

As to `CCCCOP(=O)(CC(CCCC1(C)OCCO1)CP(=O)(OCCCC)OCCCC)OCCCC` [Compound 106], in test [3], the “Specifically bound [^3 H]-PN-200 110 %” value is on record as 42 % of control value and the “Bound ^3 H at 1.0 μM / Bound ^3 H at 0.1 μM” value amounted to 0.570. For the same molecule, the “potency in [^3 H]-PN200 110 binding (in words)” value in test [3] (text on Table 1b) is reported as “as potent as Nifedipine”.

With `C=CCCOP(=O)(CC(CCOc1ccccc1)CP(=O)(OCCC=C)OCCC=C)OCCC=C` [Compound 110], in test [3], the “Specifically bound [^3 H]-PN-200 110 %” value is recorded as 13 % of control value and the “Bound ^3 H at 1.0 μM / Bound ^3 H at 0.1 μM” value is listed as 0.294.

`CCCCCOP(=O)(CC(CCCc1ccccc1)CP(=O)(OCC)OCCCCC)OCC` (centres unmarked) [Compound 117, Bis(ethyl, pentyl) 2-(3-phenylpropyl)-1,3-propylidenediphosphonate]: in test [4] (Rattus norvegicus, 40 min, read-out: Contraction (% max.)), the activity at 1 µM is 60 ± 4%. The “activity on KCl-induced trachea contraction (in words)” value in test [4] (final concentration 1.0 μM) is listed as “potent pharmacological activity”. In test [2], the “modulation of [^3 H]-Nitrendipine binding (in words)” value is “strong inhibitors”, the “Specifically bound [^3 H]-Nitrendipine % of control value” is 79 % of control value and the “Bound ^3 H at 1.0 μM / Bound ^3 H at 0.1 μM” value is 0.950.

Consider `C[C@](N)(Cc1ccc(O)c(O)c1)C(=O)O` [Methyl Dopa, reference compound], for which the inhibition in vivo at 1 mg/kg in test [1] turned out to be 0%.

As for `CC(C)NCC(O)COc1cccc2ccccc12` (centres unmarked) [Propranolol, reference compound], the inhibition in vivo at 1 mg/kg in test [1] was found to be 11.8 ± 1.1%.
